Reference: US11447480B2, “Compound exhibiting enteropeptidase inhibitory activity” (LG CHEM, LTD., priority 2018, dated 2022)

molecular target: Recombinant Human Enteropeptidase (Homo sapiens (Human), UniProt P98073); assay: Enteropeptidase Inhibition Assay; assay type: biochemical; details: substrate Acetyl-Asp-Asp-Asp-Asp-Lys-AFC 30 μM, 30° C., 1 hour; Ki calculated from IC50 using Cheng-Prusoff equation
Experimental: Enteropeptidase Inhibition Assay
The inhibitory activity of the enteropeptidase inhibitor synthesized using the purified Recombinant Human Enteropeptidase and the substrate Acetyl-Asp-Asp-Asp-Asp-Lys-AFC (BioVision) was measured. 7.2 ng/mL of Enteropeptidase diluted with a buffer (20 mM Tris, 50 mM NaCl, pH 7.5) in a 96 well plate (Costar), 30 μM of Acetyl-Asp-Asp-Asp-Asp-Lys-AFC, several concentrations of Enteropeptidase inhibitors (1% DMSO concentration) were dispensed such that a final volume was 100 μL, and then the enzyme reaction was carried out at 30° C. for 1 hour. At this time, 1% DMSO, a substrate and Enteropeptidase instead of the compound were dispensed onto positive control wells, and 1% DMSO and a substrate were dispensed onto negative control wells. The enzyme reaction was […] using an excitation wavelength of 380 nm and an emission wavelength of 500 nm in a fluorescence spectrometer, and then the rate of increase in fluorescence (milli-units per min) between 20 and 60 minutes was measured.
The fluorescence measurement values reduced by the inhibitor diluted at each concentration were converted into relative values % of the positive control group (100% reactivity) and the negative control group (0% reactivity), and used to calculate IC50 values. IC50 is the concentration of the inhibitor that inhibits the enzyme activity by 50%, and was calculated using PRISM (GraphPad). Ki values were calculated from the IC50 values using Cheng-Prusoff equation.

Chain of Recombinant Human Enteropeptidase (P98073 whole entry): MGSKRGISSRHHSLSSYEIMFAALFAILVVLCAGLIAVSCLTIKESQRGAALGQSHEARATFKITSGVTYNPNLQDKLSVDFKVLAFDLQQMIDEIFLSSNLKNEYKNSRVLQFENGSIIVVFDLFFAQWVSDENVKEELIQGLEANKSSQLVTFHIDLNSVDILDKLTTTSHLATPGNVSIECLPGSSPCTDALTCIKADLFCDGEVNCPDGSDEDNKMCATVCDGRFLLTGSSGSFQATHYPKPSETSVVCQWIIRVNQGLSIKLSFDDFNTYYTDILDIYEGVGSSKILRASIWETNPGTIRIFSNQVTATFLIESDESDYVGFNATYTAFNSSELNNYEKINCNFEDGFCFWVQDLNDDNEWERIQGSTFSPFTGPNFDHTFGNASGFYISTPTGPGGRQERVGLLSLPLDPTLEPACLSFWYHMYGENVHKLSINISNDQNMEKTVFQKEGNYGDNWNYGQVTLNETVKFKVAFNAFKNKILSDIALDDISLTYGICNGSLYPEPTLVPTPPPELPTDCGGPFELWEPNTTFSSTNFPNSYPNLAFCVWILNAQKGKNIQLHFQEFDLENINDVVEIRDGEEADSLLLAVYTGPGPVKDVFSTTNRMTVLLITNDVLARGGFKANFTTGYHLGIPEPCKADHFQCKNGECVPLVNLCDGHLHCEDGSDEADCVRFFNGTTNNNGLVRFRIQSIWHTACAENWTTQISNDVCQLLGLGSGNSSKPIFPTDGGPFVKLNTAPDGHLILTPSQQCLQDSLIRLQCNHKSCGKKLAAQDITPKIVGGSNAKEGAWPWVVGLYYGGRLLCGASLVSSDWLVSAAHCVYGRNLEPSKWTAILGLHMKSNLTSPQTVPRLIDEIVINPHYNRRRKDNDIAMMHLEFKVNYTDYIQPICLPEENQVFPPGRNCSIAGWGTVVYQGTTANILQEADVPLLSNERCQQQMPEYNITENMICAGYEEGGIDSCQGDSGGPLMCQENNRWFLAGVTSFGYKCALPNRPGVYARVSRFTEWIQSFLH

Compound | Ki [nM]
CCN(CCC(=O)O)c1ncc(C(=O)Oc2ccc(C(=N)N)cc2)s1 [Example 14] | 5.1
CCN(CC(C)(C)C(=O)OC)c1nc2ccc(C(=O)Oc3ccc(C(=N)N)cc3)cc2s1 [Example 69, 4-Carbamimidoylphenyl 2-(ethyl(3-methoxy-2,2-dimethyl-3-oxopropyl)amino)benzo[d]thiazole-6-carboxylate] | 21
N=C(N)c1ccc(OC(=O)c2cnc(N3CCC(C(=O)NCC(=O)O)CC3)s2)c(F)c1 [Example 42, (1-(5-((4-Carbamimidoyl-2-fluorophenoxy)carbonyl)thiazol-2-yl)piperidine-4-carbonyl)glycine] | 1
COC(=O)C(C)(C)CNC(=O)C1CCN(c2ncc(C(=O)Oc3ccc(C(=N)N)cc3F)s2)CC1 [Example 39, 4-Carbamimidoyl-2-fluorophenyl 2-(4-((3-methoxy-2,2-dimethyl-3-oxopropyl)carbamoyl)piperidin-1-yl)thiazole-5-carboxylate] | 2.5
CCN(CCC(=O)OC)c1nc2ccc(C(=O)Oc3ccc(C(=N)N)cc3F)cc2s1 [Example 84, 4-Carbamimidoyl-2-fluorophenyl 2-(ethyl(3-methoxy-3-oxopropyl)amino)benzo[d]thiazole-6-carboxylate] | 2.2
CC(C)(CNc1nc2ccc(C(=O)Oc3ccc(C(=N)N)cc3F)cc2s1)C(=O)O [Example 56, 3-((6-((4-Carbamimidoyl-2-fluorophenoxy)carbonyl)benzo[d]thiazol-2-yl)amino)-2,2-dimethylpropanoic Acid] | 0.59
N=C(N)c1ccc(OC(=O)c2cnc(N3CCC(C(=O)N[C@@H](CC(=O)O)C(=O)O)CC3)s2)cc1 [Example 25] | 4.7
COC(=O)CNC(=O)C1CCN(c2ncc(C(=O)Oc3ccc(C(=N)N)cc3)s2)CC1 [Example 29, 4-Carbamimidoylphenyl 2-(4-((2-methoxy-2-oxoethyl)carbamoyl)piperidin-1-yl)thiazole-5-carboxylate] | 18
CN(CCC(=O)O)c1ncc(C(=O)Oc2ccc(C(=N)N)cc2)s1 [Example 9] | 28
CCN(CCC(=O)O)c1nc2ccc(C(=O)Oc3ccc(C(=N)N)cc3)cc2s1 [Example 66, 3-((6-((4-Carbamimidoylphenoxy)carbonyl)benzo[d]thiazol-2-yl)(ethyl)amino)propanoic Acid] | 4.8
CC(C)(CNC(=O)C1CCN(c2ncc(C(=O)Oc3ccc(C(=N)N)cc3F)s2)CC1)C(=O)O [Example 45, 3-(1-(5-((4-Carbamimidoyl-2-fluorophenoxy)carbonyl)thiazol-2-yl)piperidine-4-carboxamido)-2,2-dimethylpropanoic Acid] | 1.5
CCn1/c(=N/CC(C)(C)C(=O)OC)sc2cc(C(=O)Oc3ccc(C(=N)N)cc3F)ccc21 [Example 87, 4-Carbamimidoyl-2-fluorophenyl (Z)-3-ethyl-2-((3-methoxy-2,2-dimethyl-3-oxopropyl)imino)-2,3-dihydrobenzo[d]thiazole-6-carboxylate] | 4
N=C(N)c1ccc(OC(=O)c2ccc3nc(NCCC(=O)O)sc3c2)cc1 [Example 65, 3-((6-((4-Carbamimidoylphenoxy)carbonyl)benzo[d]thiazol-2-yl)amino)propanoic Acid] | 5.7
COC(=O)C1CCN(c2ncc(C(=O)Oc3ccc(C(=N)N)cc3)s2)C1 (stereo not drawn) [Example 16, 4-Carbamimidoylphenyl 2-(3-(methoxycarbonyl)pyrrolidin-1-yl)thiazole-5-carboxylate] | 19
N=C(N)c1ccc(OC(=O)c2cnc(N3CCC(C(=O)NCCC(=O)O)CC3)s2)c(F)c1 [Example 43, 3-(1-(5-((4-Carbamimidoyl-2-fluorophenoxy)carbonyl)thiazol-2-yl)piperidine-4-carboxamido)propanoic Acid] | 1.7
CCN(CCC(=O)O)c1nc2ccc(C(=O)Oc3ccc(C(=N)N)cc3F)cc2s1 [Example 85, 3-((6-((4-Carbamimidoyl-2-fluorophenoxy)carbonyl)benzo[d]thiazol-2-yl)(ethyl)amino)propanoic Acid] | 0.55
CCN(CC(C)(C)C(=O)O)c1nc2ccc(C(=O)Oc3ccc(C(=N)N)cc3F)cc2s1 [Example 75, 3-((6-((4-Carbamimidoyl-2-fluorophenoxy)carbonyl)benzo[d]thiazol-2-yl)(ethyl)amino)-2,2-dimethyl Propanoic Acid] | 0.7
CCN(CCC(=O)N[C@H](CCC(=O)OC(C)(C)C)C(=O)OC(C)(C)C)c1ncc(C(=O)Oc2ccc(C(=N)N)cc2F)s1 [Example 48] | 37

Compound | Ki [nM]
COc1ccc(NC(=O)C2CCN(c3ncc(C(=O)Oc4ccc(C(=N)N)cc4)s3)CC2)cc1 [Example 40, 4-carbamimidoylphenyl 2-(4-((4-methoxyphenyl)carbamoyl)piperidin-1-yl)thiazole-5-carboxylate] | 9.7
CN(CC(C)(C)C(=O)O)c1nc2ccc(C(=O)Oc3ccc(C(=N)N)cc3)cc2s1 [Example 86, 3-((6-((4-Carbamimidoylphenoxy)carbonyl)benzo[d]thiazol-2-yl)(methyl)amino)-2,2-dimethylpropanoic Acid] | 10
CCN(CCC(=O)Nc1cccc(C(=O)O)c1)c1ncc(C(=O)Oc2ccc(C(=N)N)cc2F)s1 [Example 54, 3-(3-((5-((4-Carbamimidoyl-2-fluorophenoxy)carbonyl)thiazol-2-yl)(ethyl)amino)propanamido)benzoic Acid] | 2.5
COC(=O)CCN(C)c1nc2ccc(C(=O)Oc3ccc(C(=N)N)cc3F)cc2s1 [Example 72, 4-Carbamimidoyl-2-fluorophenyl 2-((3-methoxy-3-oxopropyl)(methyl)amino)benzo[d]thiazole-6-carboxylate] | 1.3
CN(CC(C)(C)C(=O)O)c1ncc(C(=O)Oc2ccc(C(=N)N)cc2)s1 [Example 19] | 4.8
CN(CCC(=O)O)c1nc2ccc(C(=O)Oc3ccc(C(=N)N)cc3F)cc2s1 [Example 77, 3-((6-((4-Carbamimidoyl-2-fluorophenoxy)carbonyl)benzo[d]thiazol-2-yl)(methyl) Amino)propanoic Acid] | 0.57
COC(=O)C(C)(C)CNc1ncc(C(=O)Oc2ccc(C(=N)N)cc2)s1 [Example 24, 4-Carbamimidoylphenyl 2-((3-methoxy-2,2-dimethyl-3-oxopropyl)amino)thiazole-5-carboxylate] | 8.9
CN(CCCC(=O)O)C(=O)C1CCN(c2ncc(C(=O)Oc3ccc(C(=N)N)cc3)s2)CC1 [Example 35] | 9.7
COC(=O)CCN(C)c1ncc(C(=O)Oc2ccc(C(=N)N)cc2)s1 [Example 8, 4-Carbamimidoylphenyl 2-((3-methoxy-3-oxopropyl)(methyl)amino)thiazole-5-carboxylate] | 28
COC(=O)C(C)(C)CN(C)c1nc2ccc(C(=O)Oc3ccc(C(=N)N)cc3)cc2s1 [Example 68, 4-Carbamimidoylphenyl 2-((3-methoxy-2,2-dimethyl-3-oxopropyl)(methyl)amino)benzo[d]thiazole-6-carboxylate] | 6
CCn1/c(=N/CC(C)(C)C(=O)O)sc2cc(C(=O)Oc3ccc(C(=N)N)cc3F)ccc21 [Example 88, (Z)-3-((6-((4-Carbamimidoyl-2-fluorophenoxy)carbonyl)-3-ethylbenzo[d]thiazole-2(3H)-ylidine)amino)-2,2-dimethylpropanoic Acid] | 0.16
CCN(CC(C)(C)C(=O)O)c1nc2ccc(C(=O)Oc3ccc(C(=N)N)cc3)cc2s1 [Example 74, 3-((6-((4-Carbamimidoylphenoxy)carbonyl)benzo[d]thiazol-2-yl)(ethyl) Amino)-2,2-dimethylpropanoic Acid] | 8.9
CCN(CCC(=O)N[C@@H](CC(=O)O)C(=O)O)c1ncc(C(=O)Oc2ccc(C(=N)N)cc2F)s1 [Example 47, (3-((5-((4-Carbamimidoyl-2-fluorophenoxy)carbonyl)thiazol-2-yl)(ethyl)amino)propanoyl)-L-aspartic Acid] | 0.52
COC(=O)CCNC(=O)C1CCN(c2ncc(C(=O)Oc3ccc(C(=N)N)cc3)s2)CC1 [Example 30, 4-Carbamimidoylphenyl 2-(4-((3-methoxy-3-oxopropyl)carbamoyl)piperidin-1-yl)thiazole-5-carboxylate] | 18
COC(=O)CCN(C)c1nc2ccc(C(=O)Oc3ccc(C(=N)N)cc3)cc2s1 [Example 60, 4-Carbamimidoylphenyl 2-((3-methoxy-3-oxopropyl)(methyl)amino)benzo[d]thiazole-6-carboxylate] | 10
COC(=O)C(C)(C)CNc1nc2ccc(C(=O)Oc3ccc(C(=N)N)cc3)cc2s1 [Example 67, 4-Carbamimidoylphenyl 2-((3-methoxy-2,2-dimethyl-3-oxopropyl)amino)benzo[d]thiazole-6-carboxylate] | 19
COC(=O)CCCN(C)C(=O)C1CCN(c2ncc(C(=O)Oc3ccc(C(=N)N)cc3)s2)CC1 [Example 31, 4-Carbamimidoylphenyl 2-(4-((4-methoxy-4-oxobutyl)(methyl)carbamoyl)piperidin-1-yl)thiazole-5-carboxylate] | 17
N=C(N)c1ccc(OC(=O)c2cnc(N3CCC(C(=O)Nc4ccccc4)CC3)s2)cc1 [Example 27, 4-Carbamimidoylphenyl 2-(4-(phenylcarbamoyl)piperidin-1-yl)thiazole-5-carboxylate] | 12
